Data from patent US20200291018A1, “TAM KINASE INHIBITORS” (SYROS PHARMACEUTICALS, INC., priority 2017, published 2020).
Counter-ions that a name gives are not always drawn.

Experiments:
[1] = molecular target: T1, MERTK (Homo sapiens, UniProt Q12866); assay: TR-FRET kinase activity assay, MERTK; format: biochemical; settings: for IC50: TR-FRET activity assay, ATP at Km, 60 minutes, read-out: Mer IC50; for Mer/Flt3 ratio (FLT3 IC50/Mer IC50): ratio calculated as FLT3 IC50/Mer IC50
T1 sequence (Q12866 21-999): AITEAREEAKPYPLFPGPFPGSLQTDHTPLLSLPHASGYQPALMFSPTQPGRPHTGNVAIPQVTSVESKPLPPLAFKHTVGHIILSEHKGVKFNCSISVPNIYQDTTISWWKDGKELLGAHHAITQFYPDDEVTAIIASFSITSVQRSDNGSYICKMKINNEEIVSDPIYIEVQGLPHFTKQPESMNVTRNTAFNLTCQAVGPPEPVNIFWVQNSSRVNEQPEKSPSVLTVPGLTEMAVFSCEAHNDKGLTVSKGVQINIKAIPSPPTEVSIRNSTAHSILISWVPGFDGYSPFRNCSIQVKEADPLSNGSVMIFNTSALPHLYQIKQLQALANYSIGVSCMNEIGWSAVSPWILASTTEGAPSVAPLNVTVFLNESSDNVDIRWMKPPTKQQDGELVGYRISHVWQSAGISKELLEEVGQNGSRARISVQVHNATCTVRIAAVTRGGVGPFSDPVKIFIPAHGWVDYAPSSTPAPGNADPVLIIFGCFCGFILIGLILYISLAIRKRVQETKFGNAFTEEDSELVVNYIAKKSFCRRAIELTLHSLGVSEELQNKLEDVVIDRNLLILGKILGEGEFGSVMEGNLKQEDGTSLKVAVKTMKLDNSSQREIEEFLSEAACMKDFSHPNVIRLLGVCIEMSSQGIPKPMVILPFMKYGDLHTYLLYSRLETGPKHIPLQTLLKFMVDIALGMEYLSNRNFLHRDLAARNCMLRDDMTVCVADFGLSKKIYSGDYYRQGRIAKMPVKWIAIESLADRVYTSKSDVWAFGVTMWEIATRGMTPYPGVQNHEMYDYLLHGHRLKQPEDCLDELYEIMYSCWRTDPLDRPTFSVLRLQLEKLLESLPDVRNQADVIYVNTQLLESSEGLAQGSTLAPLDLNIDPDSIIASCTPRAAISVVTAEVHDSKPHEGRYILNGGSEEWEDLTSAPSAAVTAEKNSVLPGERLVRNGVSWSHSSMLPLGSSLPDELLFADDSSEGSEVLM
Summary of the method: (§1)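 Buffer 50 mM HEPES pH 7.5/10 mM MgCl2/1 mM EGTA/0.01% Brij 35/1 mM DTT, RT. Km ATP per kinase, labeled peptide, 60 min; 12.5 mM EDTA stop; Eu-Ab 30 min dark; TR-FRET → IC50.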

[2] = molecular target: T2, TYRO3 (Homo sapiens, UniProt Q06418); assay: TR-FRET kinase activity assay, TYRO3; format: biochemical; settings: ATP at Km, 60 minutes
T2 sequence (Q06418 41-890): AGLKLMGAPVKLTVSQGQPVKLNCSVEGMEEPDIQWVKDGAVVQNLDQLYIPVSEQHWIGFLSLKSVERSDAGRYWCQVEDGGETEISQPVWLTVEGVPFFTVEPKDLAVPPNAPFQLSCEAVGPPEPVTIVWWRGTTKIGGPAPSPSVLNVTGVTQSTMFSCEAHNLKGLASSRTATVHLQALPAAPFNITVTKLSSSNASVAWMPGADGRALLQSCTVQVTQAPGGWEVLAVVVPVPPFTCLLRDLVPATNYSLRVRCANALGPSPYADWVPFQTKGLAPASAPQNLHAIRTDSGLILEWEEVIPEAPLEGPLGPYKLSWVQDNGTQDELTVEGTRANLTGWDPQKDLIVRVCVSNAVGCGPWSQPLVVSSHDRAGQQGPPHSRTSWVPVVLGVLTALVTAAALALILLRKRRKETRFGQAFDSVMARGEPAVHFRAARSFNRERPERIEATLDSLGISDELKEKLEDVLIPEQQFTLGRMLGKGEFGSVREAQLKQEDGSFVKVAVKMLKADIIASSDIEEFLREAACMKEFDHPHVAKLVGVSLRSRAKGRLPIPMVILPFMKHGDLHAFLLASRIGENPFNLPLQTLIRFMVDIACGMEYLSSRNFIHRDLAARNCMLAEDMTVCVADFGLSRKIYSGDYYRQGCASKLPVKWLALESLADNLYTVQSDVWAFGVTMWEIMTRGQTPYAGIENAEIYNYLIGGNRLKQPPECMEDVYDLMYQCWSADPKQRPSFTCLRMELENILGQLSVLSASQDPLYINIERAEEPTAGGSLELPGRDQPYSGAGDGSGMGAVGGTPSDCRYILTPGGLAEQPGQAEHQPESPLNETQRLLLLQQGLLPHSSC
Summary of the method: as §1

IC50 [1] [nM]	Mer/Flt3 ratio (FLT3 IC50/Mer IC50) [1]	IC50 [2] [nM]	Structure (SMILES)
≤ 100	+ (a ratio of >2.0 and <10)	100 to 1000	CCCCNc1ncc2c(=O)n(-c3ccc(CN4CCOCC4)cc3)cc([C@H]3CC[C@H](O)CC3)c2n1 [Compound 101]
≤ 100	+ (a ratio of >2.0 and <10)	≤ 100	CCCCNc1ncc2c(NCc3ccc(F)cc3)ncc([C@H]3CC[C@H](O)CC3)c2n1 [Compound 103, 4-[2-(butylamino)-5-[(4-fluorophenyl)methylamino]pyrido[4,3-d]pyrimidin-8-yl]cyclohexanol hydrochloride]
≤ 100	+ (a ratio of >2.0 and <10)	≤ 100	CCCCNc1ncc2c(OC3CCOCC3)ncc([C@H]3CC[C@H](O)CC3)c2n1 [Compound 104, (1r,4r)-4-(2-(butylamino)-5-((tetrahydro-2H-pyran-4-yl)oxy)pyrido[4,3-d]pyrimidin-8-yl)cyclohexanol]
≤ 100	+ (a ratio of >2.0 and <10)	≤ 100	CCCCNc1ncc2c(OC)ncc([C@H]3CC[C@H](O)CC3)c2n1 [Compound 127]
≤ 100	+++ (a ratio of >100)	≤ 100	CCCC(C)Nc1ncc2c(=O)n(C3CCN(C(C)=O)CC3)cc([C@H]3CC[C@H](O)CC3)c2n1 (stereo partly drawn) [Compound 128, 6-(1-acetylpiperidin-4-yl)-8-((1r,4r)-4-hydroxycyclohexyl)-2-(pentan-2-ylamino)pyrido[4,3-d]pyrimidin-5(6H)-one hydrochloride]
≤ 100	+ (a ratio of >2.0 and <10)	≤ 100	CCCCNc1ncc2c(OC3CCNCC3)ncc([C@H]3CC[C@H](O)CC3)c2n1 [Compound 129]
≤ 100	+++ (a ratio of >100)	≤ 100	CCCCC[C@H](C)Nc1ncc2c(OC3CCNCC3)ncc([C@H]3CC[C@H](O)CC3)c2n1 [Compound 130]
≤ 100	+ (a ratio of >2.0 and <10)	≤ 100	CCCCNc1ncc2c(OC3CCN(C)CC3)ncc([C@H]3CC[C@H](O)CC3)c2n1 [Compound 131]
≤ 100	++ (a ratio of between 10 and 100)	≤ 100	O[C@H]1CC[C@H](c2cnc(OC3CCOCC3)c3cnc(NC4CCCC4)nc32)CC1 [Compound 132]
≤ 100	+++ (a ratio of >100)	≤ 100	CCCC(C)Nc1ncc2c(OC3CCOCC3)ncc([C@H]3CC[C@H](O)CC3)c2n1 (stereo partly drawn) [Compound 133]
≤ 100	+ (a ratio of >2.0 and <10)	≤ 100	O[C@H]1CC[C@H](c2cnc(OC3CCOCC3)c3cnc(Nc4ccc(Cl)cc4)nc32)CC1 [Compound 134, (1r,4r)-4-(2-((4-chlorophenyl)amino)-5-((tetrahydro-2H-pyran-4-yl)oxy)pyrido[4,3-d]pyrimidin-8-yl)cyclohexan-1-ol]
≤ 100	+++ (a ratio of >100)	≤ 100	CC(C)Nc1ncc2c(OC3CCNCC3)ncc([C@H]3CC[C@H](O)CC3)c2n1 [Compound 135]
≤ 100	++ (a ratio of between 10 and 100)	≤ 100	O[C@H]1CC[C@H](c2cnc(OC3CCNCC3)c3cnc(N[C@H]4CCOC4)nc32)CC1 [Compound 136]
100 to 1000	++ (a ratio of between 10 and 100)	100 to 1000	C[C@@H](CO)Nc1ncc2c(OC3CCOCC3)ncc([C@H]3CC[C@H](O)CC3)c2n1 [Compound 137]
≤ 100	+++ (a ratio of >100)	≤ 100	CCCC(C)Nc1ncc2c(=O)n(C3CCN(S(C)(=O)=O)CC3)cc([C@H]3CC[C@@H](O)CC3)c2n1 (stereo partly drawn) [Compound 138]
≤ 100	+++ (a ratio of >100)	≤ 100	CCCC(C)Nc1ncc2c(O[C@H]3CC[C@H](O)CC3)ncc([C@H]3CC[C@H](O)CC3)c2n1 (stereo partly drawn) [Compound 139]
≤ 100	+++ (a ratio of >100)	≤ 100	CCC(C)Nc1ncc2c(OC3CCOCC3)ncc([C@H]3CC[C@H](O)CC3)c2n1 (stereo partly drawn) [Compound 140]
≤ 100	+++ (a ratio of >100)	≤ 100	CCCC(C)Nc1ncc2c(OC3CCS(=O)(=O)CC3)ncc([C@H]3CC[C@H](O)CC3)c2n1 (stereo partly drawn) [Compound 141]
≤ 100	++ (a ratio of between 10 and 100)	100 to 1000	CCCC(C)Nc1ncc2c(OC3CCS(=O)(=O)CC3)ncc([C@H]3CC[C@@H](O)CC3)c2n1 (stereo partly drawn) [Compound 142]
≤ 100	+++ (a ratio of >100)	≤ 100	CCCC(C)Nc1ncc2c(OC3CCN(S(C)(=O)=O)CC3)ncc([C@H]3CC[C@H](O)CC3)c2n1 (stereo partly drawn) [Compound 143]
≤ 100	+ (a ratio of >2.0 and <10)	100 to 1000	CC1(C)CC(Nc2ncc3c(OC4CCOCC4)ncc([C@H]4CC[C@H](O)CC4)c3n2)C1 [Compound 144]
100 to 1000	++ (a ratio of between 10 and 100)	≤ 100	COC[C@@H](C)Nc1ncc2c(OC3CCOCC3)ncc([C@H]3CC[C@H](O)CC3)c2n1 [Compound 145]
≤ 100	+++ (a ratio of >100)	≤ 100	CCCC(C)Nc1ncc2c(OC3CCC(OC)CC3)ncc([C@H]3CC[C@H](O)CC3)c2n1 (stereo partly drawn) [Compound 147]
≤ 100	+++ (a ratio of >100)	≤ 100	CCCC(C)Nc1ncc2c(O[C@H]3CC[C@@H](O)CC3)ncc([C@H]3CC[C@H](O)CC3)c2n1 (stereo partly drawn) [Compound 148]
≤ 100	+++ (a ratio of >100)	≤ 100	CCCC(C)Nc1ncc2c(=O)n(C3CCN(CC(=O)N(C)C)CC3)cc([C@H]3CC[C@@H](O)CC3)c2n1 (stereo partly drawn) [Compound 149]
≤ 100	+++ (a ratio of >100)	≤ 100	CCCC(C)Nc1ncc2c(=O)n(C3CCN(CCOC)CC3)cc([C@H]3CC[C@H](O)CC3)c2n1 (stereo partly drawn) [Compound 150]
≤ 100	+++ (a ratio of >100)	≤ 100	CCCC(C)Nc1ncc2c(=O)n(C3CCN(CCC(=O)N(C)C)CC3)cc([C@H]3CC[C@H](O)CC3)c2n1 (stereo partly drawn) [Compound 151]
≤ 100	+++ (a ratio of >100)	≤ 100	CCC[C@@H](C)Nc1ncc2c(=O)n(C3CCNCC3)cc([C@H]3CC[C@H](O)CC3)c2n1 [Compound 152]

Structure (SMILES)	IC50 [1] [nM]	Mer/Flt3 ratio (FLT3 IC50/Mer IC50) [1]	IC50 [2] [nM]
CCCC(C)Nc1ncc2c(N(C)C3CCN(C)CC3)ncc([C@H]3CC[C@H](O)CC3)c2n1 (stereo partly drawn) [Compound 146]	≤ 100	++ (a ratio of between 10 and 100)	≤ 100
